# Reference: patent US6596720B1, “Anti-HIV compositions” (priority 1999, dated 2003)
# How the values were obtained:
# [1] = tested on: MT-4 cells; assay: Cytotoxicity against MT-4 cells (trypan blue exclusion); type: cell-based; settings: 2 days, relative to control group
# Method: (§1) Cytotoxicity Against MT-2 Cells and MT-4 Cells
# (§2) MT-2 cells and MT-4 cells were transferred to RPMI 1640 medium (supplemented with 10% FCS) at 2×10^5 cells/ml. […] The cells were cultured at 37° C. Two days later, the trypan blue exclusion test was carried out and the number of living cells in each group was counted.
# (§3) Relative survival rate (%), expressed as a percentage, was calculated from the number of living cells in the test drug-treated group relative to the number of living cells in the drug-free solution-treated group as a control group, by the following equation:
# (§4) Relative survival rate (%)=(N3/N4)×100
# (§5) in which N3 is the number of living cells in the test drug-treated group, and N4 is the number of living cells in the control group.
# [2] = tested on: HIV GUN-1 strain; assay: Antiviral activity against HIV GUN-1 strain in MT-4 cells (fluorescent antibody assay); type: cell-based; settings: HIV GUN-1, MT-4 cells, MOI 0.05, 2 days
# Method: (§6) Antiviral activity against HIV GUN-1 strain (Jpn. J. Cancer Res., vol. 78, 11-15(1987)) and HIV IIIB strain (Science, vol. 224, 497-500(1984)) in MT-2 cells and MT-4 cells (Nature, vol. 294, 770-771 (1981))
# (§7) MT-2 cells and MT-4 cells were transferred to RPMI 1640 medium (supplemented with 10% fetal calf serum (FCS)) at 2×10^5 cells/ml. […] The cells were cultured at 37° C. One hour later, the cells were infected with HIV at multiplicity of infection of 0.05 (MOI=0.05) and cultured at 37° C. for 2 days. Smears of MT-2 cells and MT-4 cells were prepared and assayed for HIV-positive cells by fluorescent antibody assay (Science, vol. 229, 563(1985)). 3′-Azide-3′-deoxythymidine (hereinafter abbreviated as AZT) was used as a positive control.
# (§8) The relative infection rate (%), expressed as a percentage, was calculated from the number of HIV-infected cells in the drug-treated group relative to the number of infected cells in the drug-free solution-treated group as a control group by the following equation:
# (§9) Relative infection rate (%)=(N1/N2)×100
# (§10) in which N1 is the number of HIV-positive cells in the test drug-treated group, and N2 is the number of HIV-positive cells in the control group.
# [3] = tested on: HIV IIIB strain; assay: Antiviral activity against HIV IIIB strain in MT-4 cells (fluorescent antibody assay); type: cell-based; settings: MOI 0.05, 2 days
# Method: as §6, §7, §8, §9, §10
# [4] = tested on: HIV IIIB strain; assay: Antiviral activity against HIV IIIB strain in MT-2 cells (fluorescent antibody assay); type: cell-based; settings: MOI 0.05, 2 days
# Method: as §6, §7, §8, §9, §10
# [5] = tested on: MT-2 cells; assay: Cytotoxicity against MT-2 cells (trypan blue exclusion); type: cell-based; settings: 2 days, relative to control group
# Method: as §1, §2, §3, §4, §5
# [6] = tested on: HIV GUN-1 strain; assay: Antiviral activity against HIV GUN-1 strain in MT-2 cells (fluorescent antibody assay); type: cell-based; settings: HIV GUN-1, MT-2 cells, MOI 0.05, 2 days
# Method: as §6, §7, §8, §9, §10
# [7] = tested on: beagle dogs
# [8] = tested on: SD rats
# [9] = tested on: HIV GUN-1 strain; assay: Antiviral activity against HIV GUN-1 strain in C8166 cells (syncytia count); type: cell-based; settings: HIV GUN-1, C8166 cells, MOI 0.25, 2 days
# Method: Antiviral Activity Against HIV GUN-1 Strain in C8166 Cells (Salahuddinn et al., Virology, vol. 129, 51-64(1983))
# C8166 cells were transferred to RPMI 1640 medium (supplemented with 10% FCS) at 2×10^5 cells/ml. […] The cells were cultured at 37° C. One hour later, the cells were infected with HIV at multiplicity of infection (MOI) of 0.25 (MOI=0.25) and cultured at 37° C. for 2 days. Then the number of syncytia induced by HIV infection was determined.
# Relative infection rate (%), expressed as a percentage, was calculated from the number of HIV-infected cells in the test drug-treated group relative to the number of HIV-infected cells in the drug-free solution-treated group as a control group, by the following equation:
# Relative infection rate (%)=(N5/N6)×100
# in which N5 is the number of syncytia in the test drug-treated group, and N6 is the number of syncytia in the control group.
smiles,measurement,setting,value
"Cc1cn([C@H]2C[C@H](N=[N+]=[N-])[C@@H](CO)O2)c(=O)[nH]c1=O [AZT, 3′-Azide-3′-deoxythymidine]",Relative survival rate (%),[1]; drug 10 μg/ml,100%
same,Relative survival rate (%),[1]; drug 100 μg/ml,100%
same,Relative survival rate (%),[1]; drug 1000 μg/ml,84%
same,Relative infection rate (%),[2]; drug 0.001 μg/ml,100%
same,Relative infection rate (%),[2]; drug 0.01 μg/ml,40%
same,Relative infection rate (%),[2]; drug 0.1 μg/ml,4%
same,Relative infection rate (%),[2]; drug 1 μg/ml,0%
same,Relative infection rate (%),[2]; drug 10 μg/ml,0%
same,Relative infection rate (%),[2]; drug 100 μg/ml,0%
same,Relative infection rate (%),[2]; drug 1000 μg/ml,0%
same,Relative infection rate (%),[3]; drug 0.001 μg/ml,100%
same,Relative infection rate (%),[3]; drug 0.01 μg/ml,25%
same,Relative infection rate (%),[3]; drug 0.1 μg/ml,5%
same,Relative infection rate (%),[3]; drug 1 μg/ml,0%
same,Relative infection rate (%),[3]; drug 10 μg/ml,0%
same,Relative infection rate (%),[3]; drug 100 μg/ml,0%
same,Relative infection rate (%),[3]; drug 1000 μg/ml,0%
same,Relative infection rate (%),[4]; drug 0.001 μg/ml,100%
same,Relative infection rate (%),[4]; drug 0.01 μg/ml,20%
same,Relative infection rate (%),[4]; drug 0.1 μg/ml,10%
same,Relative infection rate (%),[4]; drug 1 μg/ml,0%
same,Relative infection rate (%),[4]; drug 10 μg/ml,0%
same,Relative infection rate (%),[4]; drug 100 μg/ml,0%
same,Relative infection rate (%),[4]; drug 1000 μg/ml,0%
same,Relative survival rate (%),[5]; drug 10 μg/ml,100%
same,Relative survival rate (%),[5]; drug 100 μg/ml,100%
same,Relative survival rate (%),[5]; drug 1000 μg/ml,100%
same,Relative infection rate (%),[6]; drug 0.001 μg/ml,100%
same,Relative infection rate (%),[6]; drug 0.01 μg/ml,30%
same,Relative infection rate (%),[6]; drug 0.1 μg/ml,10%
same,Relative infection rate (%),[6]; drug 1 μg/ml,0%
same,Relative infection rate (%),[6]; drug 10 μg/ml,0%
same,Relative infection rate (%),[6]; drug 100 μg/ml,0%
same,Relative infection rate (%),[6]; drug 1000 μg/ml,0%
"O=c1[nH]c(=O)n([C@H]2C[C@H](O)[C@@H](CO)O2)cc1C(F)(F)F [FTD, trifluridine]","Maximum tolerated dose (causing no death, expressed as FTD dose)","[7]; male beagle dogs, oral, repeated for 14 days, combination molar ratio FTD/compound 1=1/0.5",6 mg/kg
same,"Maximum tolerated dose (causing no death, expressed as FTD dose)","[8]; male SD rats, oral, repeated for 14 days, combination molar ratio FTD/compound 1=1/0.5",150 mg/kg
same,Infection rate (%),[9]; FTD 0.01 μg/ml,90%
same,Infection rate (%),[9]; FTD 0.1 μg/ml,59%
same,Infection rate (%),[9]; FTD 1 μg/ml,2%
same,Infection rate (%),[9]; FTD 10 μg/ml,0%
same,Infection rate (%),[9]; FTD 100 μg/ml,0%
same,Infection rate (%),[9]; FTD 1000 μg/ml,0%
"Cl.N=C1CCCN1Cc1[nH]c(=O)[nH]c(=O)c1Cl [Compound 1, 5-Chloro-6-(2-iminopyrrolidin-1-yl)methyl-2,4(1H,3H)-pyrimidinedione Hydrochloride]",Change of the maximum tolerated dose of FTD by compound 1,"[7]; beagle dogs, FTD + compound 1 versus FTD alone",approximately tripled
same,Change of the maximum tolerated dose of FTD by compound 1,"[8]; SD rats, FTD + compound 1 versus FTD alone",approximately tripled
